# Experimental data from patent publication US20250281480A1, “PHARMACEUTICAL DRY POWDER INHALATION FORMULATION” (Bayer Aktiengesellschaft, priority 2021, published 2025).
# Experiments:
# [1] = system: chronic ovalbumin asthma mice model; experiment: Chronic ovalbumin asthma mice model; conditions: mouse, in vivo
# plasma proteins [2] = experiment: Protein binding via Transil assay, dog plasma; type: in vitro ADME
# From the text: (§1) The distribution of a test substance between Transil® (phosphatidylcholine lipid bilayers immobilized on silica beads) and plasma is a characteristic feature of any pharmaceutical compound and is dependent on its extent of binding to plasma proteins. By comparing the distribution between Transil® and buffer with the distribution between Transil® and plasma of any species of interest, the unbound fraction in the plasma of the respective animal species can be calculated in vitro. The respective plasma and buffer concentrations were determined via a radioactivity analysis. A detailed description of the method and its validation was published by Schuhmacher et al. (2).
# soluble guanylyl cyclase = experiment: Efficacy under experimental conditions of oxidative stress (ODQ, L-NAME treatment); type: in vivo
# [3] = system: acetylcholine [ACh] rat model; experiment: Acetylcholine [ACh] rat model, bronchodilation; conditions: in vivo
# plasma proteins [4] = experiment: Protein binding via Transil assay, human plasma; type: in vitro ADME; conditions: human plasma
# From the text: as §1
# plasma proteins [5] = experiment: Protein binding via Transil assay, monkey plasma; type: in vitro ADME
# From the text: as §1
# PAH-minipig = PAH-minipig model, inhaled application on top of PAH standard-of-care; type: in vivo; conditions: bosentan, sildenafil, Ilomedin, riociguat
compound,measurement,setting,value
"O=C(O)c1ccc(CCN(CCc2ccccc2OCc2ccc(-c3ccc(C(F)(F)F)cc3)cc2Cl)[C@H]2CCCc3nc(C(=O)O)ccc32)cc1 [Comparative example 11, (5S)-5-{[2-(4-carboxyphenyl)ethyl][2-(2-{[3-chloro-4′-(trifluoromethyl)[biphenyl]-4-yl]methoxy}phenyl)ethyl]amino}-5,6,7,8-tetrahydroquinoline-2-carboxylic Acid]",effect on airway hyper-responsiveness and inflammation,[1],inhibitory effect on airway hyper-responsiveness and inflammation
same,"fraction unbound, lower than comparative example 1",plasma proteins [2],10 times lower
same,efficacy under oxidative stress,soluble guanylyl cyclase,enhanced
same,effect on ventilation,[3],bronchodilatory effect
same,"free fraction, lower than comparative example 1",plasma proteins [4],2 times lower
same,"free fraction, lower than comparative example 1",plasma proteins [5],2 times lower
same,effect on PAP on top of PAH standard-of-care,PAH-minipig,selectively decreased elevated PAP
